Calls of active or inactive are those of the source. How the calls were made is not given here.

Here are results for 22 compounds from PubChem BioAssay AID1259408 (Genetic Toxicology Data Bank (GENE-TOX), 2018).

For this data set, the system named is GENE-TOX genotoxicity assays, various organisms and cells. In words: GENE-TOX mutagenicity studies. The following applies: for call: Assay Type: In vivo carcinogenicity studies.
Where [1] appears, read: Species/Cell Type: Drosophila melanogaster, Assay Type: Sex-linked recessive lethal gene mutation, Assay Code: SRL+, Evaluation Type: Evaluation A (Pre-1980).
Where [2] appears, read: Species/Cell Type: Escherichia coli polA (W3119 vs P3478), Assay Type: Rec-assay, DNA effects (bacterial DNA repair), Assay Code: RE1T, Evaluation Type: Evaluation A (Pre-1980).
Where [3] appears, read: Species/Cell Type: Nonhuman, Assay Code: CCG+, Evaluation Type: Evaluation A (Pre-1980).
Where [4] appears, read: Species/Cell Type: Salmonella typhimurium (one or more of the five standard strains: TA98, TA100, TA1535, TA1537, and TA1538), Assay Type: Histidine reverse gene mutation, Ames assay, Assay Code: SALT, Evaluation Type: Evaluation A (Pre-1980).
Where [5] appears, read: Species/Cell Type: Salmonella typhimurium (one or more of the five standard strains: TA98, TA100, TA1535, TA1537, and TA1538), Assay Type: Histidine reverse gene mutation, Ames assay, Assay Code: SAL+, Evaluation Type: Evaluation A (Pre-1980).
Where [6] appears, read: Species/Cell Type: Drosophila melanogaster, Assay Type: Sex-linked recessive lethal gene mutation, Assay Code: SRLT, Evaluation Type: Evaluation A (Pre-1980).
[7] abbreviates: Species/Cell Type: Human lymphocytes, Assay Type: Sister-chromatid exchange (SCE) in vitro, Assay Code: SCL+D, Dose Response: With dose response, Evaluation Type: Evaluation B (Post-1980).
The mark [8] stands for this setting: Species/Cell Type: Human, Assay Type: Sister-chromatid exchange (SCE) in vitro, Assay Code: SC1+D, Dose Response: With dose response, Evaluation Type: Evaluation B (Post-1980).
The mark [9] stands for this setting: Species/Cell Type: Nonhuman, Assay Type: Sister-chromatid exchange (SCE) in vitro, Assay Code: SC2+D, Dose Response: With dose response, Evaluation Type: Evaluation B (Post-1980).
The mark [10] stands for this setting: Species/Cell Type: Nonhuman, Assay Type: Sister-chromatid exchange (SCE) in vitro, Assay Code: SC2+, Evaluation Type: Evaluation B (Post-1980).
Setting [11] is: Species/Cell Type: Human lymphocytes, Assay Type: Sister-chromatid exchange (SCE) in vitro, Assay Code: SCL+, Evaluation Type: Evaluation B (Post-1980).
[12] abbreviates: Species/Cell Type: Human, Assay Type: Sister-chromatid exchange (SCE) in vitro, Assay Code: SC1+, Evaluation Type: Evaluation B (Post-1980).
[13] abbreviates: Species/Cell Type: Salmonella typhimurium (one or more of the five standard strains: TA98, TA100, TA1535, TA1537, and TA1538), Assay Type: Histidine reverse gene mutation, Ames assay, Assay Code: SAL+*, Activation: With metabolic activation, Evaluation Type: Evaluation A (Pre-1980).

For `COP(=O)(OC)OC`, the mutagenic call is “active; positive” under setting [1]; “no conclusion” under setting [2]; “active; positive” (Species/Cell Type: Human lymphocytes or leukocytes, Assay Type: Chromosome aberrations in vitro, Assay Code: CY7+D, Dose Response: With dose response, Evaluation Type: Evaluation A (Pre-1980)); “active; positive” (Species/Cell Type: Mammalian polychromatic erythrocytes, Assay Type: Micronucleus test, chromosome aberrations, Assay Code: MNT+, Evaluation Type: Evaluation A (Pre-1980)); “active; positive” (Species/Cell Type: Mouse, Sex: Male, Assay Type: Sperm morphology, Assay Code: SPI+, Evaluation Type: Evaluation A (Pre-1980)); “active; positive” (Species/Cell Type: Rodents, Sex: Male, Assay Type: Dominant lethal test, Assay Code: DLT+D, Dose Response: With dose response, Evaluation Type: Evaluation A (Pre-1980)). For the same compound, for the setting “Species/Cell Type: Tradescantia species, Assay Type: Gene mutation, Assay Code: TRM+D, Dose Response: With dose response, Evaluation Type: Evaluation A (Pre-1980)”, the mutagenic call is “active; positive”. The call under setting [3] is “active; positive”.

Consider `CC(C)(C)N(CCCC(=O)O)N=O`, for which the mutagenic call under setting [4] is “no conclusion”.

As for `Cc1c2c(c(C)c3c1ccc1ccccc13)[C@@H]1OC1[C@@H](O)[C@@H]2O` (stereo partly drawn), under “Species/Cell Type: Chinese hamster lung (V79) cells, Assay Type: Forward gene mutation at the HPRT or ouabain locus, Assay Code: V79+, Evaluation Type: Evaluation A (Pre-1980)”, the mutagenic call is “active; positive”.

As for `CC(=O)Nc1nnc(-c2ccc([N+](=O)[O-])o2)s1`, the mutagenic call under setting [5] is “active; positive”.

For `CCOP(=S)(OCC)Oc1ccc([N+](=O)[O-])cc1`, the mutagenic call is “active; positive” (Species/Cell Type: Allium cepa, Assay Type: Chromosome aberrations, Assay Code: ALC+D, Dose Response: With dose response, Evaluation Type: Evaluation A (Pre-1980)); “no conclusion” (Species/Cell Type: Bacillus subtilis (H17 vs M45), Assay Type: Rec-assay, spot test, DNA effects (bacterial DNA repair), Assay Code: REWT, Evaluation Type: Evaluation A (Pre-1980)); “no conclusion” under setting [6]; “inactive; negative” (Species/Cell Type: Escherichia coli WP2 UVRA, Assay Type: Tryptophan reverse gene mutation, Assay Code: WPU-*, Activation: With metabolic activation, Evaluation Type: Evaluation A (Pre-1980)); “no conclusion” under setting [2]; “inactive; negative” (Species/Cell Type: Human diploid fibroblasts, Assay Type: Unscheduled DNA synthesis (UDS) in vitro, DNA effects, Assay Code: UDH-, Evaluation Type: Evaluation A (Pre-1980)). In addition, the mutagenic call is, setting by setting: under setting [7], “active; positive”; under setting [8], “active; positive”; under setting [9], “active; positive”; (Species/Cell Type: Saccharomyces cerevisiae, Assay Type: Mitotic recombination or gene conversion, Assay Code: YEH-, Evaluation Type: Evaluation A (Pre-1980)) “inactive; negative”; under setting [4], “no conclusion”.

As to `Oc1cc2cc3ccccc3c3ccc4cccc1c4c23`, the mutagenic call reads like this: (Species/Cell Type: Chinese hamster lung (V79) cells, Assay Type: Forward gene mutation at the HPRT or ouabain locus, Assay Code: V79-, Evaluation Type: Evaluation A (Pre-1980)) “inactive; negative”; under setting [10], “active; positive”; under setting [4], “no conclusion”. Besides, under “Species/Cell Type: Nonhuman, Assay Code: CCGT, Evaluation Type: Evaluation A (Pre-1980)”, the call is “no conclusion”.

On to `Cc1cccc2c1ccc1c3c(ccc12)C(=O)CC3`, for which the mutagenic call under setting [4] is “no conclusion”.

`Cc1ccc(C(C)C)c(O)c1`: the mutagenic call reads like this: (Species/Cell Type: Allium cepa, Assay Type: Chromosome aberrations, Assay Code: ALC-, Evaluation Type: Evaluation A (Pre-1980)) “inactive; negative”; under setting [6], “no conclusion”.

With `Oc1cccc2cccnc12`, the mutagenic call is “active; positive” under setting [11]; “active; positive” under setting [12]; “no conclusion” (Species/Cell Type: Mammalian polychromatic erythrocytes, Assay Type: Micronucleus test, chromosome aberrations, Assay Code: MNTT, Evaluation Type: Evaluation B (Post-1980)); “inactive; negative” (Species/Cell Type: Neurospora crassa, Assay Type: Aneuploidy, chromosome aberrations, Assay Code: NEN-, Evaluation Type: Evaluation A (Pre-1980)); “inactive; negative” (Species/Cell Type: Saccharomyces cerevisiae, Assay Type: Mitotic recombination or gene conversion, Assay Code: YEC-, Evaluation Type: Evaluation A (Pre-1980)); “active; positive” under setting [13]. Moreover, the mutagenic call (Species/Cell Type: Vicia faba, Assay Type: Chromosome aberrations, Assay Code: VIC+, Evaluation Type: Evaluation A (Pre-1980)) was “active; positive”. Besides, the call (Species/Cell Type: Nonhuman, Assay Code: CCG-, Evaluation Type: Evaluation A (Pre-1980)) is “inactive; negative”.

In the case of `COc1ccc2nc3cc(Cl)ccc3c(NCCNCCCl)c2c1`, under “Species/Cell Type: Chinese hamster ovary (CHO) cells, Assay Type: Forward gene mutation at the HPRT locus, Assay Code: CHO+, Evaluation Type: Evaluation B (Post-1980)”, the mutagenic call is “active; positive”.

As to `Cc1cc(-c2ccc(N/N=C3/C(=O)c4c(N)cc(S(=O)(=O)O)cc4C=C3S(=O)(=O)O)c(C)c2)ccc1N/N=C1/C(=O)c2c(N)cc(S(=O)(=O)O)cc2C=C1S(=O)(=O)O`, the mutagenic call is, setting by setting: (Species/Cell Type: Bacillus subtilis (H17 vs M45), Assay Type: Rec-assay, spot test, DNA effects (bacterial DNA repair), Assay Code: REW+, Evaluation Type: Evaluation A (Pre-1980)) “active; positive”; (Species/Cell Type: Salmonella typhimurium (one or more of the five standard strains: TA98, TA100, TA1535, TA1537, and TA1538), Assay Type: Histidine reverse gene mutation, Ames assay, Assay Code: SAL-, Evaluation Type: Evaluation A (Pre-1980)) “inactive; negative”. In addition, the call under setting [3] was “active; positive”.

With `O=NN1CCC(Cl)C(Cl)C1` (stereo not drawn), the mutagenic call is, setting by setting: (Species/Cell Type: Drosophila melanogaster, Assay Type: Aneuploidy, partial sex chromosome loss, chromosome aberrations, Assay Code: DAPT, Evaluation Type: Evaluation A (Pre-1980)) “no conclusion”; (Species/Cell Type: Drosophila melanogaster, Assay Type: Aneuploidy, whole sex chromosome loss, chromosome aberrations, Assay Code: DACT, Evaluation Type: Evaluation A (Pre-1980)) “no conclusion”; under setting [1], “active; positive”.

As to `ON=C1CCCCC1`, the mutagenic call under setting [6] is on record as “no conclusion”.

`O=CCCCC=O`: the mutagenic call is, setting by setting: (Species/Cell Type: Chinese hamster ovary (CHO) cells, Assay Type: Forward gene mutation at the HPRT locus, Assay Code: CHO-, Evaluation Type: Evaluation B (Post-1980)) “inactive; negative”; under setting [9], “active; positive”.

With `O=Nc1ccc2c(c1)Cc1ccccc1-2`, the mutagenic call by setting is: (Species/Cell Type: Escherichia coli polA (W3119 vs P3478), Assay Type: Rec-assay, DNA effects (bacterial DNA repair), Assay Code: RE1+, Evaluation Type: Evaluation A (Pre-1980)) “active; positive”; under setting [5], “active; positive”.

With `CCCCN(CCC(C)O)N=O` (stereo not drawn), the mutagenic call under setting [5] was “active; positive”.

In the case of `CCOS(=O)(=O)OCCOS(=O)(=O)OCC`, under “Species/Cell Type: Schizosaccharomyces pombe, Assay Type: Reverse gene mutation, Assay Code: YEZ+, Evaluation Type: Evaluation A (Pre-1980)”, the mutagenic call is “active; positive”.

As for `Clc1cc(N2CC2)nc(N2CC2)n1`, where the note is “Species/Cell Type: Aspergillus nidulans, Assay Type: Forward gene mutation, Assay Code: ASF+, Evaluation Type: Evaluation A (Pre-1980)”, the mutagenic call is “active; positive”.

Consider `O=c1[nH]c(=O)n([C@H]2C[C@H](O)[C@@H](CO)O2)cc1CO`, for which the mutagenic call reads like this: under setting [7], “active; positive”; under setting [8], “active; positive”.

Take `[Cl][Ni][Cl]`: the mutagenic call (Species/Cell Type: Bacillus subtilis (H17 vs M45), Assay Type: Rec-assay, spot test, DNA effects (bacterial DNA repair), Assay Code: REW-, Evaluation Type: Evaluation A (Pre-1980)) was “inactive; negative”; the mutagenic call (Species/Cell Type: Escherichia coli WP2, Assay Type: Tryptophan reverse gene mutation, Assay Code: WP2-, Evaluation Type: Evaluation A (Pre-1980)) was “inactive; negative”; the mutagenic call under setting [11] is “active; positive”; the mutagenic call under setting [12] is “active; positive”; the mutagenic call under setting [10] was “active; positive”; the mutagenic call (Species/Cell Type: Salmonella typhimurium, Serratia marcesens, Assay Type: Forward and reverse gene mutation, host-mediated assay, Assay Code: HM2T, Evaluation Type: Evaluation A (Pre-1980)) is “no conclusion”.

For the compound `O=C1c2ccccc2C(=O)c2c(O[C@@H]3O[C@H](CO)[C@@H](O)[C@H](O)[C@H]3O)ccc(O)c21`, under setting [13], the mutagenic call was “active; positive”.

As to `Oc1ccc2c(cc3ccc4cccc5ccc2c3c45)c1O`, the mutagenic call reads like this: (Species/Cell Type: Mouse prostate cells, Assay Type: Cell transformation, Assay Code: CTM+D, Dose Response: With dose response, Evaluation Type: Evaluation A (Pre-1980)) “active; positive”; (Species/Cell Type: Syrian hamster embryo (SHE) cells, Assay Type: Cell transformation, clonal assay, Assay Code: CTC+, Evaluation Type: Evaluation A (Pre-1980)) “active; positive”.
